Laboratory results taken from article PMC6017655, “In Silico and in Vitro-Guided Identification of Inhibitors of Alkylquinolone-Dependent Quorum Sensing in Pseudomonas aeruginosa” (Molecules : A Journal of Synthetic Chemistry and Natural …, 2018).
Read-outs that look alike come from different tables or passages of the source.

What was measured:
[1] = tested on: PqsR (pqsA promoter, PA14 mCTX::PpqsA-lux); assay: Whole cell biosensor reporter assay, PA14 mCTX::PpqsA-lux; type: cell-based, Pseudomonas aeruginosa; conditions: for IC50: Mean ± SD, n = 3; for activity at 10 µM: PA14, read-out: PA14 Remaining Activity %; for PqsR inhibitory activity (in words), PA14: screen at 10 µM
Description: (§1) To determine the ability of the quinolines to inhibit PqsR functionality, the P. aeruginosa biosensor strains, PAO1-L and PA14, incorporating a chromosomal mCTX::PpqsA-lux transcriptional fusion, were used. These report on the activation of the pqsA promoter, regulated by PqsR [25]. PAO1-L and PA14 were chosen because they are genetically amenable and belong to the two major P. aeruginosa genomic groups. The quinolone compounds were incubated with the corresponding strain, and luminescence and optical density readings were recorded to monitor the effect of the quinolines on PqsR activity and bacterial growth, respectively. The compounds were screened at 10 µM concentration, and the activity was compared to a control of DMSO (0.1%) (Figure 3a). To be considered a hit, a threshold of at least 50% inhibition of the test compound, relative to the negative control had to be reached, without affecting bacterial growth. […] Concentration-response experiments were then carried out to determine the IC50 values (Figure 3b,c), which are summarised in Table 1.
Strains PA14 mCTX::PpqsA-lux and PAO1-L mCTX::PpqsA-lux were constructed using plasmid mini-CTX::PpqsA-lux, as previously described, and the assay was performed according to a published protocol. For screening, the compounds were tested at a concentration of 10 µM, which was prepared from a 10 mM stock, in DMSO.

PA14 = assay: Bacterial growth (optical density) in reporter assay, PA14; type: cell-based, Pseudomonas aeruginosa; conditions: compound vs DMSO control
Description: as §1
Figure 3 Whole bacterial cell-based P. aeruginosa compound screen for both PqsR and growth inhibition (a) Activity against PA14 (green) and PAO1-L (purple) PpqsA-lux reporter strains at 10 µM test compound; (b) and (c) Dose-response curves for active compounds against PA14 (b) and PAO1-L (c); (d) and (e) growth curves for PA14 (d) and PAO1-L (e) in the presence of compound or DMSO control.

[2] = tested on: pyocyanin production by PAO1-L; assay: Pyocyanin production assay, PAO1-L; type: cell-based, Pseudomonas aeruginosa; conditions: 3x IC50, 16 h
Description: Pyocyanin is a blue redox-active toxin, produced by P. aeruginosa and strongly-controlled by PqsR via the regulation of pqsE expression. Pyocyanin is essential for the pathogenicity of P. aeruginosa in lung infections. The effect of the PqsR inhibitors on pyocyanin production by PA14 and PAO1-L strains, when grown in the presence or absence of the inhibitors, was investigated (Figure 4).
The experiment was performed following a published protocol with minor modifications. P. aeruginosa strains were cultured into 5 mL fresh medium overnight. […] Cells were centrifuged at 10,000 RCF for 10 min (Allegra 64R centrifuge, Beckman Coulter, High Wycombe, UK) and the supernatant was transferred to 15 mL falcon tubes with a HSW 10 mL Soft-Ject Syringe and a […] Sartorius syringe-driven filter (Fisher Brand, Loughborough, UK). Pyocyanin pigment was extracted into chloroform by mixing 7.5 mL of supernatant with 4.5 mL of chloroform. Pyocyanin was further extracted into 1.5 mL of 0.2 M HCL, which gave a pink/red solution, and the absorbance was measured at 520 nm.

AQ production in PA14 = assay: Alkylquinolone (HHQ, PQS, HQNO) production by LC-MS/MS, PA14; type: cell-based, Pseudomonas aeruginosa; conditions: 3x IC50, 16 h, culture supernatant
Description: HQNO, can protect Staphylococcus aureus from vancomycin [31] and contributes to the environmental competitiveness of P. aeruginosa, through its activity as a potent inhibitor of the cytochrome bc1 complex. […] LC-MS/MS was used to quantify the major AQs HHQ, PQS and HQNO after incubation of the P. aeruginosa strains with the hit compounds, for 16 h. The assay was performed using both PAO1-L and PA14 strains which were treated with PqsR antagonists at concentrations three-fold higher than their IC50 values. The results obtained depended on the inhibitor and strain tested (Figure 5).
For each test sample, 100 µL of sterile filtered supernatant (the same preparation as for pyocyanin) was spiked with 10 µL of an internal standard solution (10 µM d4-PQS in MeOH), and diluted with water, to a total volume of 500 µL. Samples were then extracted three times with an 0.5 mL aliquot of ethyl acetate, vortex mixing the aqueous/organic mix for 2 min, then removing the organic phase once the layers had successfully partitioned. For each sample, the combined organic extracts were dried under vacuum and re-dissolved in 100 µL MeOH prior to analysis. For the LC-MS/MS analysis of supernatant extracts, the chromatography was achieved using a Shimadzu series 10AD VP LC system (Columbia, MD, USA). The LC column, maintained at 40 °C, was a Phenomenex Gemini C18 (3.0 µm, 100 × 3.0 mm) (Macclesfield, Cheshire, UK) with an appropriate guard column. Mobile phase A was 0.1% (v/v) formic acid in water containing 2 mM 2-picolinic acid, and mobile phase B 0.1% (v/v) formic acid in methanol. The flow rate throughout the chromatographic separation was 450 µL/min. After an injection of a 2 µL/sample, a binary gradient, beginning initially at 30% B, increased linearly to 99% B over 5 min. The composition remained at 99% B for 3 min, decreased to 30% B over 1 min, and stayed at this composition for 4 min, to allow for column equilibration. […] Where chromatographic peaks for HHQ, HQNO and PQS were detected, a peak area was determined, and analyte peak area/internal standard peak area calculated.

[3] = Hepatic microsomal stability, rat; type: in vitro ADME; conditions: liver microsomes, pH 7.4, 0.5 mg/mL protein, NADPH, 37 °C; for microsomal CLint at 1 µM: read-out: Microsomal Stability Rat Clint (intrinsic clearance); for half-life at 1 µM: read-out: Microsomal Stability Rat t1/2
Description: (§2) Dilutions of a 1 mM test compound DMSO stock solution were prepared in buffer (typically 0.01 M phosphate buffered saline (pH 7.4) so that the final DMSO concentration was 0.1% v/v and the final test compound concentration tested was 1 µM. Following addition of protein (0.5 mg/mL final) and NADPH, the samples were pre-incubated for 10 min prior to the start of the incubation by the addition of test compound. The test compounds were then incubated (n = 2; 1 µM final concentration) at 37 °C with tissue microsomes. Aliquots were sampled at several time points and mixed with acetonitrile (containing internal standard) to terminate the reaction and precipitate the proteins. All the samples were mixed, centrifuged and the supernatants analysed by UPLC-MS/MS. The intrinsic clearance (Clint) and half-life (t 1/2) values were determined from the slope of the parent depletion curve. Control compounds for low, moderate and high intrinsic clearance, respectively, for both human and rat microsomes, were included.

[4] = Hepatic microsomal stability, human; type: in vitro ADME; conditions: liver microsomes, pH 7.4, 0.5 mg/mL protein, NADPH, 37 °C; for half-life at 1 µM: read-out: Microsomal Stability Human t1/2
Description: as §2

[5] = Pseudomonas aeruginosa, PA14, read-out: IC50 PA14, PpqsA-lux reporter
[6] = read-out: IC50 PA14, PpqsA-lux reporter

SMILES | IC50 [1, 5] | activity at 10 µM ([1]; Pseudomonas aeruginosa) | IC50 [1, 6] | PqsR inhibitory activity (in words), PA14 [1] | Effect on bacterial growth, PA14 (PA14) | Effect on pyocyanin production (in words), PAO1-L [2] | Inhibition of AQ production (in words), PA14 (AQ production in PA14) | microsomal CLint at 1 µM [3] | half-life at 1 µM [3] | microsomal CLint at 1 µM [4] | half-life at 1 µM [4] | Reduction of pyocyanin production, PAO1-L ([2]; strain not singled out in the sentence)
O=CN1N=C(c2ccccc2)CC1c1cccc(Nc2ccnc3cc(Cl)ccc23)c1 (centres unmarked) [Ia] | 2200 nM | 18.7 ± 1.98% | 2300 ± 510 nM | strong PqsR inhibitory activity | without interfering with bacterial growth | strongest effect | strongly-inhibited AQ production | 122 µL/min/mg | 11.5 min | 60.3 µL/min/mg | 23.3 min | 
CC(=O)N1N=C(c2ccccc2)CC1c1cccc(Nc2ccnc3cc(Cl)ccc23)c1 (centres unmarked) [IIa] | 3700 nM | 19.7 ± 1.9% | 4000 ± 1620 nM | strong PqsR inhibitory activity | without interfering with bacterial growth | weakest effect | moderate effect | 87.8 µL/min/mg | 15.8 min | 73 µL/min/mg | 19 min | over 25%
